{"source": "patent US10508309B2", "about": "“Methods for detecting and treating variants of seborrheic keratoses” (THE GENERAL HOSPITAL CORPORATION, priority 2013, dated 2019)", "system": "SK", "test": "Response to A44/puro (summary of features for KA, SK, and SCC)", "conditions": "seborrheic keratosis (SK) column; the KA and SCC cells print \"?\""}
{"molecule": "COc1ccc(C[C@H](N)C(=O)N[C@H]2[C@@H](O)[C@H](n3cnc4c(N(C)C)ncnc43)O[C@@H]2CO)cc1", "note": "[puro, puromycin]", "values": [{"measurement": "Response to A44/puro?", "value": "Yes"}]}
